# Measured values reported in article PMC10835127, “Viruses traverse the human proteome through peptide interfaces that can be biomimetically leveraged for drug discovery” (Proceedings of the National Academy of Sciences of the …, 2024).
# Read-outs that look alike come from different tables or passages of the source.
# Key:
# HIV1 strain NL4-3 = type: cell-based; conditions: normalized mean of HIV1 replication readout
# HCV replicon = type: cell-based; conditions: normalized mean of HCV replicon readout
# [1] = system: F. novicida (strain U112); type: cell-based
# influenza A H1N1 virus = conditions: 48 hr post-treatment, A549
# EBV = conditions: for EBV Norm MEAN: normalized mean of EBV replication readout
Substance,HIV1 Norm MEAN (HIV1 strain NL4-3),HCV Norm MEAN (HCV replicon),Francisella novicida Norm AUC [1],Neuraminidase activity normalized to vehicle (influenza A H1N1 virus; 200 µM peptide),"Neuraminidase activity normalized to vehicle (influenza A H1N1 virus; 0,823 µM peptide)","Neuraminidase activity normalized to vehicle (influenza A H1N1 virus; 22,2 µM peptide)","Neuraminidase activity normalized to vehicle (influenza A H1N1 virus; 2,4691 µM peptide)","Neuraminidase activity normalized to vehicle (influenza A H1N1 virus; 7,4074 µM peptide)","Neuraminidase activity normalized to vehicle (influenza A H1N1 virus; 66,6667 µM peptide)",EBV Norm MEAN (EBV),HIV1 Norm MEAN (HIV1 strain NL4-3; peptide screen),HCV Norm MEAN (HCV replicon; peptide screen),EBV Norm MEAN (EBV; peptide screen),inhibition of PI incorporation in F. novicida infected BMDMs (in words) [1],"enhancement of EBV signal (EBV; 20 µM peptide, Hone-1 cells, 48 h)"
CPEP140: peptide of the viral peptide library; sequence page not shown (RKKRRQRRRA),1.188,0.5668,0.8228,"0,616","0,9961","1,0982","1,0685","0,9007","1,0124",1.618,,,,,
PVHAGPIAPGQMREP [CPEP81],,,1.038,"0,9395","0,9268","1,0319","1,0385","1,0221","1,026",,0.8771,0.6759,0.3978,,
AAAVAFL [CPEP117],0.6808,0.1615,0.9738,"0,72","0,8345","0,8782","0,8234","0,8773","0,8792",1.118,,,,,
DLYCYEQLNDSSEEE [CPEP55],,,1.147,"1,025","0,8699","0,9333","0,9062","0,9392","1,0033",,0.5362,0.7703,0.3423,,
RYSKRRHGRR [CPEP118],1.129,0.2514,1.247,"0,7942","0,9639","0,7875","0,9014","0,7974","0,7776",1.996,,,,,
IHTHARFLIT [CPEP139],2.216,0.5677,1.233,"0,8832","1,1262","0,9135","1,0704","1,0144","0,8125",1.5606,,,,,
HFEPPTLHELYDLDVTAP [CPEP115],,,1.086,"1,0337","1,141","1,1784","1,0495","1,1676","1,1762",,1.21,0.5064,0.5144,,
CPEP136: peptide of the viral peptide library; sequence page not shown (VTNDCPNSSIVYE),,,1.265,"0,9602","0,8343","0,8466","0,9183","0,8168","0,9818",,0.7957,0.4475,1.578,,
PTAPP [CPEP49],1.171,0.1885,1.057,"0,7922","0,6686","0,8389","0,6943","0,7716","0,9061",0.9513,,,,,
CPEP14: peptide of the viral peptide library; sequence page not shown (ILHTPGCVPCVR),0.4683,0.5608,1.22,"0,9254","0,9272","1,0033","0,9392","0,9017","1,0554",1.5484,,,,,
WRHRAR [CPEP113],0.4362,0.1192,0.358,"0,9723","0,965","0,979","0,9338","0,9116","1,0465",1.761,,,,most,
"CPEP71: viral library peptide from HIV1 Integrase, targets IPO7 (WKGPAKLLWKG)",1.077,0.4108,1.748,"0,1137","0,7606","1,0288","1,0227","0,9266","0,9918",2.918,,,,,more than 2 fold
CPEP98: peptide of the viral peptide library; sequence page not shown (PLPPTKAPPIPPPR),,,1.1759,"1,0266","0,8951","0,9384","0,9959","0,9005","0,9857",,0.2763,0.3984,0.8005,,
MSSDLRLTLLELVRRL [CPEP66],,,1.55,"1,1231","1,0081","1,2015","1,0026","1,0851","1,0904",,8.878,1.3108,1.239,,
CPEP96: peptide of the viral peptide library; sequence page not shown (GRKKRRQRRRAHQ),,,1.029,"0,8043","0,9089","0,9748","0,9539","0,8942","0,9344",,0.5669,0.3919,1.164,,
PPIPPPR [CPEP151],0.669,0.3254,1.288,"1,016","0,9906","0,9273","0,9123","0,9111","0,9435",1.55,,,,,
TGERDW [CPEP119],0.9503,0.3105,1.661,"0,8047","0,8876","0,8371","0,7125","0,8133","0,8609",0.6578,,,,,
DKELYPLTSLRSLFG [CPEP65],,,0.6089,"0,356","0,8623","1,0442","0,9706","0,9802","1,0044",,0.2888,0.8278,0.6954,,
HVKNG [CPEP123],1.079,0.1965,0.9754,"0,78","0,7776","0,8404","0,7299","0,7535","0,9273",1.599,,,,,
MNNQRKKAKNTPFNM [CPEP62],,,0.8631,"1,2311","1,1108","0,891","1,0767","0,9136","1,1387",,0.3968,0.5393,1.218,,
